In patent US20180256611A1, “BISPHOSPHONATES FOR INCREASING THE TYPE 2 CHARACTER OF A MODIC CHANGE” (ANTECIP BIOVENTURES II LLC, priority 2017, published 2018):
Several values for one entry are separate records, joined by “and”; a condition that tells them apart may be missing. Equal entries are not always repeated.

Tested on: Modic changes (MC) on MRI in chronic LBP patients
Experiment: MRI study of size and type of Modic changes over one year after a single intravenous infusion of 5 mg zoledronic acid vs placebo
Type: in vivo, human
Method: This study was designed to compare changes in size and type of MC over one year after a single intravenous infusion of 5 mg zoledronic acid (ZA) vs placebo among chronic LBP patients with MC on MRI, and evaluate whether MRI changes correlate with improvement in clinical symptoms.
The study population consisted of patients with chronic LBP and MC on MRI. Inclusion criteria were LBP for at least three months, LBP intensity of at least six on a 10-cm Visual Analog Scale (VAS) or Oswestry Disability Index (ODI) of at least 30%, and a MC on MRI performed within at most six months prior to enrollment. The exclusion criteria included renal impairment, hypocalcaemia, hypersensitivity to bisphosphonates or the infusion, the presence of red flags, nerve root entrapment, willingness for early retirement, and childbearing potential.
All patients (N=20 in both intervention groups) had MRI at baseline (0.23-1.5 T) and one year (1.5-3 T). We evaluated the level, type, volume (cm^3) and proportion of M1 and M2 of all MC. MC were classified to pure M1 (M1 (100%)), mixed M1/2 with predominating M1 (M1/2 (65:35%)) or predominating M2 (M1/2 (35:65%)), and pure M2 (M2 (100%)). The first two were considered M1-dominant, and the latter two M2-dominant. Volumes of M1 and M2 were calculated separately for the primary MC, assumed to cause the symptoms, and for other MC. Cross tabulations were used to describe the distributions of MC type in ZA and placebo groups at baseline and one year. The treatment differences in M1 and M2 volumes, from baseline to one year, were analyzed using ANCOVA with adjustments for age, sex, body mass index and smoking. The correlations of MRI changes with changes in intensity of LBP (10-cm Visual Analog Scale) and Oswestry Disability Index (ODI) were analyzed using Pearson correlations.
Patients were randomized to receive a single intravenous infusion of 5 mg ZA in 100 ml saline (n=20) or 100 ml saline as placebo (n=20) over a 15-minute period. Before administration of the infusion, all patients received oral ibuprofen 600 mg or paracetamol 1 g to prevent acute phase reactions, and 100 000 units of Vitamin D (Vigantol®) to prevent hypocalcaemia. Patients, the principal investigator, performing the screening and follow-up assessments, and the radiologist evaluating the MRI scans were blinded to the treatment allocation.
Baseline MRIs were obtained with five 1.5 T units and a 0.23 T unit. There was some variation in imaging protocols due to the multiple units used. Protocols were of clinical imaging purpose established to spine imaging. The imaging parameters of sagittal T1-weighted (T1W) turbo spin-echo (TSE) or fast spin-echo (FSE) sequences with fluid attenuation inversion recovery (FLAIR) were repetition time (TR) 1800-2270 ms/inversion time (TI) 860 ms/echo time (TE) 9-29 ms (N=16) and without FLAIR: TR 326-793 ms/TE 8-18 ms (N=23). The imaging parameters of sagittal T2-weighted (T2W) TSE/FSE sequences were TR 3000-4500 ms/TE 105-130 ms (N=40). The imaging parameters of short tau inversion recovery sequences (STIR) were e.g. TR 3400/TI 150/TE 70. Spacing, including slice thickness and slice gap, of the image slices was 4.4-6.2 mm in all sequences.
At the one-year follow-up, MRIs were obtained with two 1.5 T units and a 3 T unit. The imaging parameters of sagittal T1-weighted TSE or FSE sequences with FLAIR were TR 2047-2270 ms/TI 860-900 ms/TE 9-29 ms (N=38) and without FLAIR: TR 540-587/TE 12-24 ms (N=2). The imaging parameters of sagittal T2-weighted TSE or FSE sequences were TR 2796-3500 ms/TE 101-123 ms (N=40). Spacing was 3.6-5 mm in all sequences.

[1] = ZA vs placebo, change to follow-up

## O=P(O)(O)C(O)(Cn1ccnc1)P(=O)(O)O [ZA, zoledronic acid]
ZA vs placebo
  Total volume of other than the primary Modic lesion, difference (95% CI), unadjusted: −0.21 (−1.28, 0.86) cm^3
  Volume of M1 of other than the primary Modic lesion, difference (95% CI), unadjusted: −0.17 (−2.12, 1.78) cm^3
  Volume of M2 of other than the primary Modic lesion, difference (95% CI), unadjusted: −0.04 (−1.99, 1.90) cm^3
[1]
  Total volume of the primary Modic lesion, difference (95% CI), adjusted for age, sex, BMI and smoking: −1.64 (−4.03, 0.76) cm^3
  Total volume of the primary Modic lesion, difference (95% CI), age-adjusted analysis: −1.46 (−3.50, 0.59) cm^3
  Volume of M1 of the primary Modic lesion, difference (95% CI), age-adjusted analysis: −1.92 (−4.65, 0.82) cm^3
  Volume of M2 of the primary Modic lesion, difference (95% CI), adjusted for age, sex, BMI and smoking: 0.12 cm^3 and 0.12 (−2.50, 2.75) cm^3
  Volume of M2 of the primary Modic lesion, difference (95% CI), age-adjusted analysis: 0.46 (−1.90, 2.82) cm^3
At baseline, placebo 22%
  Proportion of M1 volume of the total volume, other than primary MC: 13%
At one year, placebo 36%
  Proportion of M1 volume of the total volume, other than primary MC: 24%
baseline
  Total volume of other than the primary Modic lesion, mean (SD): 7.53 (7.53) cm^3
  Total volume of the primary Modic lesion, mean (SD): 12.0 cm^3 and 11.99 (5.14) cm^3
  Volume of M2 of other than the primary Modic lesion, mean (SD): 6.52 (7.63) cm^3
  Volume of M2 of the primary Modic lesion, mean (SD): 4.54 (3.90) cm^3
Baseline to follow-up
  Total volume of other than the primary Modic lesion, mean (SD) change: 0.39 (1.02) cm^3
  Volume of M1 of other than the primary Modic lesion, mean (SD) change: 0.86 (2.19) cm^3
  Volume of M2 of other than the primary Modic lesion, mean (SD) change: −0.47 (2.44) cm^3
Baseline to one year, placebo 11%
  Total volume of other than primary MC increased by: 5%
Baseline to one year, placebo 34%
  M2 volume of primary MC increased by: 56%
Baseline to one year, placebo increased by 18%
  M1 volume of primary MC decreased by: 13%
Baseline to one-year follow-up
  Total volume of the primary Modic lesion, mean (SD) change: 1.6 cm^3 and 1.58 (2.18) cm^3
  Volume of M1 of the primary Modic lesion, mean (SD) change: −0.96 cm^3 and −0.96 (4.33) cm^3
  Volume of M2 of the primary Modic lesion, mean (SD) change: 2.54 cm^3 and 2.54 (2.94) cm^3
baseline, n=17
  Volume of M1 of other than the primary Modic lesion, mean (SD): 1.02 (1.90) cm^3
baseline, n=20
  Volume of M1 of the primary Modic lesion, mean (SD): 7.44 (4.47) cm^3
follow-up
  Total volume of other than the primary Modic lesion, mean (SD): 7.92 (7.31) cm^3
  Volume of M1 of other than the primary Modic lesion, mean (SD): 1.88 (2.47) cm^3
  Volume of M2 of other than the primary Modic lesion, mean (SD): 6.05 (6.43) cm^3
follow-up (one year)
  Total volume of the primary Modic lesion, mean (SD): 13.57 (5.42) cm^3
  Volume of M1 of the primary Modic lesion, mean (SD): 6.48 (5.25) cm^3
  Volume of M2 of the primary Modic lesion, mean (SD): 7.09 (4.50) cm^3
one-year follow-up, placebo 15% (p=0.087)
  M1-dominant primary MC converted to M2-dominant: 45%
